Assay results reported in US7429596B2, “1H-pyrrolo [2,3-D] pyrimidine derivatives and methods of use thereof” (The Regents of the University of California, priority 2003, dated 2008).
Numbering of substitutions follows the chain as printed. Several values for one entry are separate records, joined by “and”; a condition that tells them apart may be missing. Equal entries are not always repeated. Entries after “also recorded” stand apart in the source; their conditions may differ. Where two headings read alike, the source gives them in different places.

Experiments:
11β-HSD1 = 11β-HSD1 (Homo sapiens, UniProt P28845); conditions: Diederich et al. 2000; cited from earlier work
Chain of 11β-HSD1 (P28845 whole entry): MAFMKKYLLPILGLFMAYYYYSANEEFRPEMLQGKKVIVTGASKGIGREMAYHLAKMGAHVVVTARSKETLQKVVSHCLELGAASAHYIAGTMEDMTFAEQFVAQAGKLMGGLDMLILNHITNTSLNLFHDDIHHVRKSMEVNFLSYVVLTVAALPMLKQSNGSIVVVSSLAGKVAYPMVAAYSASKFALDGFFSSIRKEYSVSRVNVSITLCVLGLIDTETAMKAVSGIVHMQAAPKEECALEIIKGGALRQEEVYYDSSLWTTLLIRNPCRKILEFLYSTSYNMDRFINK

c-Fyn-wt = c-Fyn-wt (Homo sapiens, UniProt P06241); assay: Inhibition of Src family kinase Fyn; type: biochemical
Chain of c-Fyn-wt (P06241 whole entry): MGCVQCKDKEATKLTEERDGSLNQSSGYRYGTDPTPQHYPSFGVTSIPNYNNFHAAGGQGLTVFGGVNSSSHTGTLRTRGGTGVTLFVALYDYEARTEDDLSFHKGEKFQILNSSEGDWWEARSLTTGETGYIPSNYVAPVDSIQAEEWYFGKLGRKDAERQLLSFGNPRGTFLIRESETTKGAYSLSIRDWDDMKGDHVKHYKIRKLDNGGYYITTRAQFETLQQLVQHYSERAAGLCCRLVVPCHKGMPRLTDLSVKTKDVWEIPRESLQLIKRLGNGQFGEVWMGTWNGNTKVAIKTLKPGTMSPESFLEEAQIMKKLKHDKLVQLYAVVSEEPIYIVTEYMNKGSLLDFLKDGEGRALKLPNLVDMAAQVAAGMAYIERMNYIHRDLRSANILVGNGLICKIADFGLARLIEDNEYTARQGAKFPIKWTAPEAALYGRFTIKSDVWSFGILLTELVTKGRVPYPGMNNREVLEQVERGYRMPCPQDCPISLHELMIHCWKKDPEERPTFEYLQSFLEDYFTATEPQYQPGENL
Protocol: Experiments were performed to determine whether AB129 was capable of inhibiting the Src family kinase, Fyn. […] Such a compound would serve as a test compound for determining the importance of dual inhibition of CBR1 and protein kinases.

[1] = molecular target: T1, carbonyl reductase 1 (CBR1) (Homo sapiens, UniProt P16152); assay: Production of daunorubicinol from daunorubicin
T1 sequence (P16152 1-277): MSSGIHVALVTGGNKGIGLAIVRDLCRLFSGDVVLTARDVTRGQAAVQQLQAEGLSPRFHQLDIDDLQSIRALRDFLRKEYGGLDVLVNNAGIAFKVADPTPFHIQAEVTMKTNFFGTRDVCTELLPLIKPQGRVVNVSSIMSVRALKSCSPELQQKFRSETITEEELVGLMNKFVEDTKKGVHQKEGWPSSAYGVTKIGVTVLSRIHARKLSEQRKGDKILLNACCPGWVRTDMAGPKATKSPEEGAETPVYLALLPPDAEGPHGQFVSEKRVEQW
Description: To independently confirm the ability of AB129 to inhibit CBR1 in A549 cells, an assay based on the role of CBR1 in attenuating the anti-cancer action of daunorubicin was employed.

i.v. serum half-life = type: in vivo; conditions: iv, read-out: i.v. serum half-life (t1/2)
Description: The data obtained from these cell culture assays and animal studies can be used in formulating a dosage range that is not toxic for use in human. The dosage of such compounds lies within a range of circulating concentrations that include the ED50 with little or no toxicity. The dosage can vary within this range depending upon the dosage form employed and the route of administration utilized. The exact formulation, route of administration and dosage can be chosen by the individual physician in view of the patient's condition. (See, e.g., Fingl et al., 1975, In: The Pharmacological Basis of Therapeutics, Ch. 1, p. 1). One of the advantages, among others, of using the AB129-type compounds and analogs described herein to treat disease, e.g., lung cancer or colon cancer is their lack of toxicity.

[2] = molecular target: T2, N90V mutant of carbonyl reductase 1 (CBR1) (Homo sapiens, UniProt P16152, N90V); assay: Sensitivity of N90V mutant CBR1 to inhibitor; type: biochemical; conditions: FIG. 30
T2 construct: made in house
T2 sequence (P16152 1-277 N90V): T1 sequence (P16152 1-277) with N90V
Description: To understand the basis for the potency of AB129 against CBR1, a computer algorithm was used for molecular docking of AB129 to an available crystal structure of porcine CBR1 to produce a model of the bound structure of AB129 (FIG. 24). This modeled co-structure was experimentally validated by site-directed mutagenesis of multiple amino acids in the proposed AB129 binding pocket (including a conserved Asn residue common to all SDR family members—FIGS. 25-27) and identification of AB129 resistant mutants of CBR1 (FIGS. 28-30). This binding model also potentially explains the importance of the hydroxyl moiety attached to the phenyl ring of AB129, as being critical for a H-bonding interaction with an active site Asn.

[3] = system: A549 lung carcinoma cells; conditions: human, 2 days, 0.4 μM
[4] = system: A549 lung carcinoma cells; assay: Cell cycle of A549 cells
[5] = system: A549 lung carcinoma cells; assay: A549 cell killing / viability
[6] = molecular target: T1, carbonyl reductase 1 (CBR1); assay: CBR1 inhibition: menadione reduction, NADPH absorbance at 340 nm; type: biochemical; design: 6-His (N); made in house; host or cells: E. coli
Protocol: CBR was expressed in E. coli and purified using glutathione beads; CBR has a naturally occurring. glutathione binding site. An N-terminal 6-His tagged protein was prepared to allow purification by metal affinity. Our CBR assay employs the synthetic substrate Menadione (2-methyl-1,4-naphthoquinone). Reaction progress is monitored by the decrease in NADPH-absorbance at 340 nm. Saturating concentrations of Menadione with variable concentrations of NADPH are employed in order to ascertain KI values.

adenocarcinoma cells = assay: Killing of adenocarcinoma cells in culture; type: cell-based
Description: In order to verify this assumption, the pyrazolopyrimidine RB2 and the analogous pyrrolopyrimidine RB5 were synthesized (FIG. 37). These compounds employ an R^2 isopropyl as opposed to the AB129 t-butyl because the Mitsunobu reaction used for RB5 synthesis is not amenable to t-butyl alkylation.

[7] = Table 1, read-out: IC50 anti-c-Fyn-wt
[8] = Table 1, read-out: IC50 anti-hCBR1

| Structure (SMILES) | IC50 (c-Fyn-wt; [7]) | IC50 [6, 8] | IC50 ([6]; read-out: anti-CBR IC50) | further results |
| --- | --- | --- | --- | --- |
| CC1(C)[C@@H](O[C@H]2O[C@H](C(=O)O)[C@@H](O)[C@H](O)[C@H]2O[C@@H]2O[C@H](C(=O)O)[C@@H](O)[C@H](O)[C@H]2O)CC[C@]2(C)[C@H]3C(=O)C=C4[C@@H]5C[C@@](C)(C(=O)O)CC[C@]5(C)CC[C@@]4(C)[C@]3(C)CC[C@@H]12 [glycyrrhizic acid] | – | – | – | IC50 (11β-HSD1): 40 nM |
| CC(C)(C)n1nc(-c2cccc(O)c2)c2c(N)ncnc21 [AB129] | 8 nM | 790 nM | – | IC50 (c-Fyn-wt; read-out: anti-Fyn IC50): 10 nM; production of cardiotoxic metabolite daunorubicinol from daunorubicin [1]: able to block production; half-life (i.v. serum half-life): 2 to 2.5 h; sensitivity of N90V mutant CBR1 versus wild type CBR1 [2]: less sensitive; loss of viability of A549 cells [3]: 15%; A549 cells in G2/M phase [4]: approximately 12%; cell killing in human lung cancer cell line A549 [5]: mild to severe cell killing; also recorded: most potent A549 cell killing response; IC50 ([6]; FIG. 5, read-out: IC50, CBR1 catalyzed reduction of menadione by NADPH): ~5000 nM; Ki ([6]; NADPH competitive): 400 nM and 300 to 400 nM; mode of inhibition of CBR1 ([6]; with respect to NADPH): pure NADPH competitive inhibitor |
| CC(C)(C)n1nc(-c2cccc(N)c2)c2c(N)ncnc21 [AB060] | 50 nM | > 20000 nM | – | cell killing in human lung cancer cell line A549 [5]: mild to severe cell killing |
| CNc1ncnc2c1c(-c1cccc(N)c1)cn2C(C)C [RB07, [5-(3-amino-phenyl)-7-isopropyl-7H-pyrrolo[2,3-d]pyrimidin-4-yl]-methyl-amine] | – | > 20000 nM | – | – |
| CNc1ncnc2c1c(-c1cc(O)cc(Br)c1)cn2C(C)C [SD1, 3-bromo-5-(7-isopropyl-4-methylamino-7H-pyrrolo[2,3-d]pyrimidin-5-yl)-phenol] | – | – | 220 nM | – |
| CC(C)n1cc(-c2cc(O)cc(C(F)(F)F)c2)c2c(Cl)ncnc21 [SD8, 3-(4-Chloro-7-isopropyl-7H-pyrrolo[2,3-d]pyrimidin-5-yl)-5-trifluoromethyl-phenol] | – | – | 67 nM | – |
| CNc1ncnc2c1c(-c1cccc(O)c1)cn2CCC(=O)O [RB11, 3-(5-(3-hydroxyphenyl)-4-(methylamino)-4aH-pyrrolo[2,3-d]pyrimidin-7(7aH)-yl)propanoic acid] | – | – | 220 nM | – |
| COc1cccc2c1C(=O)c1c(O)c3c(c(O)c1C2=O)C[C@@](O)(C(C)=O)C[C@@H]3O[C@H]1C[C@H](N)[C@H](O)[C@H](C)O1 [daunorubicin, reference compound] | – | – | – | loss of viability of A549 cells ([5]; daunorubicin single agent, 0.8 μM): 15% |
| CC(C)n1nc(-c2cccc(O)c2)c2c(N)ncnc21 [RB02] | 11 nM | 1000 nM | – | killing of adenocarcinoma cells in culture (adenocarcinoma cells): kill adenocarcinoma cells in culture; CBR inhibition compared with AB129 [6]: comparable to AB129 |
| CNc1ncnc2c1c(-c1cccc(O)c1)cn2C(C)C [RB06] | 70000 nM | 590 nM | – | fold less potent as an inhibitor of Fyn (c-Fyn-wt; predicted, versus AB129): > 100 fold; CBR inhibition compared with AB129 [6]: equipotent |
| CC(C)n1cc(-c2cc(O)cc(C(C)(C)C)c2)c2c(Cl)ncnc21 [SD7, 3-tert-butyl-5-(4-chloro-7-isopropyl-7H-pyrrolo[2,3-d]pyrimidin-5-yl)-phenol] | – | – | 376 nM | – |
| CNc1ncnc2c1c(-c1cc(O)cc(C(C)(C)C)c1)cn2C(C)C [SD3, 3-tert-Butyl-5-(7-isopropyl-4-methylamino-7H-pyrrolo[2,3-d]pyrimidin-5-yl)-phenol] | – | – | 7650 nM | – |
| CNc1ncnc2c1c(-c1cc(O)cc(C(F)(F)F)c1)cn2C(C)C [SD4, 3-(7-Isopropyl-4-methylamino-7H-pyrrolo[2,3-d]pyrimidin-5-yl)-5-trifluoromethyl-phenol] | – | – | 416 nM | – |
| CNc1ncnc2c1c(-c1cc(C)cc(O)c1)cn2C(C)C [SD2, 3-(7-isopropyl-4-methylamino-7H-pyrrolo[2,3-d]pyrimidin-5-yl)-5-methyl-phenol] | – | – | 3040 nM | – |
| CC(C)n1cc(-c2cc(O)cc(Br)c2)c2c(Cl)ncnc21 [SD5, 3-bromo-5-(4-chloro-7-isopropyl-7H-pyrrolo[2,3-d]pyrimidin-5-yl)-phenol] | – | 28 nM | 27 nM | – |
| Cc1ccc(-c2nn(C(C)(C)C)c3ncnc(N)c23)cc1 [PP1, reference compound] | – | – | – | A549 cells in G2/M phase [4]: approximately 5.6%; cell killing in human lung cancer cell line A549 [5]: not; IC50 [6]: > 20000 nM; inhibition of CBR1 ([6]; at a concentration as high as 16 μM): did not inhibit; inhibition of CBR1 ([6]; in vitro assay, CBR1 expressed in bacteria): does not inhibit |
| CC(C)(C)n1nc(-c2ccc(N)cc2)c2c(N)ncnc21 [AB061] | 50 nM | > 20000 nM | – | cell killing in human lung cancer cell line A549 [5]: mild to severe cell killing |
| CCOCCn1nc(-c2ccccc2)c2c(N)ncnc21 [MT13] | 5000 nM | > 20000 nM | – | – |
| CC(C)(C)n1nc(Cc2ccccc2O)c2c(N)ncnc21 [RB04] | 120 nM | > 20000 nM | – | – |
| CCOCCn1nc(-c2cccc(O)c2)c2c(N)ncnc21 [MT15] | 200 nM | 930 nM | – | – |
| CC(C)(C)n1nc(-c2ccc(F)c(O)c2)c2c(N)ncnc21 [MS01] | 3 nM | 1000 nM | – | – |
| CC(C)(C)n1nc(Cc2ccc(O)cc2)c2c(N)ncnc21 [RB03] | ~20000 nM | > 20000 nM | – | – |
| CC(C)(C)n1nc(Cc2cccc(O)c2)c2c(N)ncnc21 [RB01] | 1200 nM | > 20000 nM | – | – |
| CNc1ncnc2c1c(-c1cccc(O)c1)cn2CCC(=O)OC(C)(C)C [RB10, tert-Butyl 3-(5-(3-hydroxyphenyl)-4-(methylamino)-4aH-pyrrolo[2,3-d]pyrimidin-7(7aH)-yl)propanoate] | – | – | 1150 nM | – |
| CC(C)(C)n1nc(-c2ccccc2)c2c(N)ncnc21 [AB001] | 110 nM | > 20000 nM | – | – |
| CC(C)n1cc(-c2cccc(O)c2)c2c(N(Cc3ccccc3)Cc3ccccc3)ncnc21 [RB09, 3-(4-dibenzylamino-7-isopropyl-7H-pyrrolo[2,3-d]pyrimidin-5-yl)-phenol] | – | > 20000 nM | – | – |
| CC(C)n1cc(-c2cccc(O)c2)c2c(NCc3ccccc3)ncnc21 [RB08, 3-(4-benzylamino-7-isopropyl-7H-pyrrolo[2,3-d]pyrimidin-5-yl)-phenol] | – | – | 4400 nM | IC50 (c-Fyn-wt; read-out: anti-Fyn IC50): 20000 nM |
| Cc1cc(O)cc(-c2cn(C(C)C)c3ncnc(Cl)c23)c1 [SD6, 3-(4-chloro-7-isopropyl-7H-pyrrolo[2,3-d]pyrimidin-5-yl)-5-methyl-phenol] | – | – | 193 nM | – |
| CC(C)n1cc(-c2cccc(O)c2)c2c(N)ncnc21 [RB05, 3-(4-amino-7-isopropyl-7H-pyrrolo[2,3-d]pyrimidin-5-yl)-phenol] | 12 nM | 760 nM | – | killing of adenocarcinoma cells in culture (adenocarcinoma cells): kill adenocarcinoma cells in culture; CBR inhibition compared with AB129 [6]: comparable to AB129 |
